Laboratory results taken from patent publication US11447638B2, “Acetalanthraquinone derivatives useful for cellular staining” (BIOSTATUS LIMITED, priority 2016, dated 2022).
pIC50: −log10 of the molar value.

Key:
[1] = Absorption and fluorescence spectra of compounds in PBS or HEPES; type: physicochemical; settings: for peak excitation wavelength: excitation wavelength used for fluorescence spectra of FIG. 1A/1B; for fluorescence emission, λ1 nm (Ex in HEPES) / fluorescence emission, λ1 nm (Ex in PBS): excited at absorption peak 1 (λ1); for fluorescence emission, λ1 nm (Ex in HEPES) / fluorescence emission, λ1 nm (Ex in PBS) / fluorescence emission, 540 nm (Ex in PBS): 20 μM; for fluorescence emission, 540 nm (Ex in PBS): excited at 540 nm
Experimental: The compounds were exited at 540 nm and at the wavelength of their absorption peak 1 (λ1 nm). The far-red fluorescent DNA dye DRAQ5 was used as reference.
Compounds were dissolved in DMSO (Sigma) to 20 mM stock concentration. DRAQ5 (Biostatus Ltd) was used as a control anthraquinone agent dissolved in deionised water. Working solutions were prepared in PBS (phosphate buffered saline; Sigma) or HEPES (4-(2-hydroxyethyl)-1-piperazineethanesulfonic acid; Sigma) at 20 or 40 μM. Probe solutions (20 μM), respectively in PBS or HEPES, were pipetted into a 1 mL quartz cuvette (Thermo Fisher Scientific). After obtaining baseline spectra in relevant buffer to zero the instrument, absorbance measurements were obtained using a Beckmann Coulter DU 800 UV/Visible spectrophotometer. The excitation wavelengths were scanned from 280 to 800 nm. Fluorescent spectral scans were performed using a Perkin Elmer LS-50B Luminescence spectrophotometer. To obtain emission scans, the excitation wavelength was set accordingly to the maximum values for each agent or another designated excitation wavelength that matches typical laser lines; and the emission wavelength were scanned from 400 nm to 900 nm in 1 nm increments. A Xenon flash lamp was used as the light source, with the lamp energy set to high. For each data point ten measurements were acquired with the photomultiplier tube sensitivity set at 125.
Compounds were excited at a wavelength corresponding to the first absorbance peak 1 (FIG. 1A and FIG. 1B show absorption (line) and fluorescence (dots) spectra of compounds; both are normalised to peak value.

U-2 OS cells = test: Confocal laser scanning microscopy (CLSM) localisation analysis; type: cell-based, human; settings: 30 min incubation, Ex 637 nm, Em >665 nm, FIG. 4 and 5
Experimental: Confocal laser scanning microscopy (CLSM) was used to analyse the localisation of compounds BST-100, BST-101 and BST-106 with the U-2 OS cells, as it permitted the acquisition of volume limited optical sections through the cell and media. Excitation (637 nm) and emission (>665 nm) values for the probe analysis were the optimal conditions. The data sets obtained were processed and assembled into a single maximum projection image.
The patterns were analysed after 30 min incubation at different z depths and eliminating the solution background. The nucleus/cytoplasm ratio was calculated to quantify the localisation of the probe per cell.
A Radiance CLSM (BioRad Microscience) was used attached to an inverted Nikon microscope. Image acquisition was performed using excitation (637 nm) and emission (>665 nm) wavelengths. The histogram plot reports the nucleus/cytoplasm index to determine DNA binding in live cells. The calibration bar represents 10 μm.
The compounds BST-108, BST-109 were analysed in the same way.

MCF7 = test: MTT cellular viability (growth inhibition) assay, MCF7; type: cell-based; settings: Homo sapiens, 0.25-100 μM, 72 h, Table 3
Experimental: (§1) The viability of A549 or MCF7 in response to compounds was determined using the MTT (3-(4,5-dimethylthiazolyl-2-)-2, 5-diphenyltetrazolium bromide) assay according to the protocol set out in Mosmann T., Rapid colorimetric assay for cellular growth and survival: application to proliferation and cytotoxicity assays. Journal of immunological methods 1983; 65:55-63.
(§2) Initially, cells were seeded into a rounded-bottom 96 well plate (Corning) at six different cell seeding densities (0.5×104, 1×104, 2×104, 3×104, 4×104, and 5×104) per mL of R10 media (cells/mL) in order to optimise the assay and establish the most suitable seeding assay. Concentration of 1×10^4 cells/mL was determined to be the optimum seeding density for both cell lines for 96 h total incubation. A control lane contained supplemented R10 only. The 96 well plates were incubated overnight at 37° C., 5% CO2 and 100% humidity to allow cell adhesion. Cells were then treated respectively with novel AAQs (0.25-100 μM) or growth inhibition (IC50) of compounds of the invention was studied against MCF7 and A549 cancer cell lines. Compounds were tested with a concentration range between 0.25 and 100 μM for 72 h and doxorubicin, as positive cytotoxic control, was tested in parallel at the same doses.

A549 = test: MTT cellular viability (growth inhibition) assay, A549; type: cell-based; settings: Homo sapiens, 0.25-100 μM, 72 h, Table 3
Experimental: as §1, §2

[2] = tested on: fixed human osteosarcoma U-2 OS cells; test: Labelling of fixed cells, wide-field fluorescence microscopy; type: cell-based; settings: 20 μM, 1 h exposure in PBS, FIG. 2
Experimental: Cells were seeded in a 24 well coverslip bottomed-plate, cultured overnight in McCoys media. 24 or 48 hours later the cells were washed gently with 3×2 mL PBS per well. The PBS was removed and 0.5 mL of 4% paraformaldehyde solution [a 4% paraformaldehyde solution in PBS was made fresh each time from a 16% stock solution (Thermo Fisher Scientific)] was added in each well and cells were incubated for 30 min. The paraformaldehyde was removed and cells were washed 3×2 mL PBS per well. 1 mL of PBS or HEPES was added to each well.
(§3) Before analysis, cells were incubated at 37° C. in the dark for the period designated. Samples were analysed directly without any further washing step. For live cell labelling cells were seeded, plated in a similar way, into a similar multi-well dish for optimal optical performance and could be used across all microscope platforms.
(§4) This basic protocol was the standard for testing the patterns of AAQ agents at 20 μM, compared to 20 μM of DRAQ5 as the benchmark reference (both in terms of cellular location and ability to detect the red fluorescence).
Low resolution wide-field fluorescence microscopy was used to evaluate cell labelling in fixed human osteosarcoma U-2 OS cells. The system was an Axiovert 100 microscope (Carl Zeiss, Welwyn Garden City, UK) ×10 0.3 NA air objective lens and an ORCA-ER CCD camera (Hamamatsu, Reading, UK). Illumination was controlled by a shutter in front of the transmission lamp. Image capture was controlled using Metamorph software. This evaluates the ability of the compounds to label cellular compartments without active uptake or efflux prohibiting delivery into the given cell. Image collection was performed after 1 h of exposure to probes in PBS. The calibration bar represents 50 μm.

A549 live cells = test: Loading of A549 live cells, wide-field fluorescence microscopy; type: cell-based, human; settings: 20 μM, 30 min incubation, FIG. 3
Experimental: as §3, §4
Low resolution wide-field fluorescence microscopy was used to evaluate cell uptake and localisation of the probe compounds. The system was an Axiovert 100 microscope (Carl Zeiss, Welwyn Garden City, UK) ×10 0.3 NA air objective lens and an ORCA-ER CCD camera (Hamamatsu, Reading, UK). Illumination was controlled by a shutter in front of the transmission lamp. Image capture was controlled using Metamorph software. Human non-small cell lung cancer A549 cell line was used as the cell model to determine whether variation of the probe loading and localisation occurred in cell population sustaining a “side population” (SP) (Smith P J, Wiltshire M, Chappell S C, Cosentino L, Burns P A, Pors K, Errington R J. Kinetic analysis of intracellular Hoechst 33342—DNA interactions by flow cytometry: misinterpretation of side population status? Cytometry A 2013; 83:161-9) with a known capacity to efflux xenobiotic molecules, including the DNA dye Hoechst 33342.
Cells were incubated for 30 min with each compound and then images were collected at a 30 ms exposure time using low resolution wide-field fluorescence microscopy. Using an Axiovert 100 microscope (Carl Zeiss, Welwyn Garden City, UK) ×10 0.3 NA air objective lens and an ORCA-ER CCD camera (Hamamatsu, Reading, UK). Illumination was controlled by a shutter in front of the transmission lamp. Image capture was controlled using Metamorph software. The calibration bar represents 50 μm.

A549 cells = test: Flow cytometry analysis of cell uptake before/after hydrolysis; type: cell-based, human; settings: 20 μM, 30 min; for % ile (25): low loader cell population
Experimental: Flow cytometry analysis was performed to evaluate the effect of pre-treatment with HCl to generate an active aldehyde on the cell uptake properties. A549 cells were incubated for 30 min with compounds of Formula (I) and its hydrolysed forms (20 μM) prior to analysis. The rate of uptake was tested in A549 cell culture media and in Aldefluor buffer, containing the MDR-blocker verapamil (Pearce and Bonnet 2007), to evaluate the effect in uptake with/without the Aldefluor assay system. Analysis was conducted in the viable subset of cells, corresponding to ˜95% of the total amount under investigation.
Aldefluor buffer contained verapamil vs. cell media. The cells were incubated with 20 μM of the respective AAQ/HAAQs (30 min) before analysis
Statistical analysis of A549 uptake before/after hydrolysis was also studied. Experiments were performed in cell media versus Aldefluor buffer. Data were processed using FlowJo software (Tree Star). DRAQ5 was used to set the dynamic range and as control dye and empty cells were used to determine auto-fluorescence.

[3] = solution: Aldefluor buffer with verapamil

Row | Structure (SMILES) | peak excitation wavelength [1] | fluorescence emission, λ1 nm (Ex in HEPES) [1] | fluorescence emission, λ1 nm (Ex in PBS) [1] | fluorescence emission, 540 nm (Ex in PBS) [1] | pIC50 (MCF7) | pIC50 (A549) | further results
1 | COC(CCCCNc1ccc(NCCCCC(OC)OC)c2c1C(=O)c1c(O)ccc(O)c1C2=O)OC [BST-100, 1,4-Bis(5,5-dimethoxypentylamino)-5,8-dihydroxyanthracene-9,10-dione] | 584 nm | 740 nm | 747.5 nm |  |  |  | subcellular localisation by CLSM (U-2 OS cells): low levels of probe in the perinuclear region, with probable overload in Golgi body and large vesicles
2 | COC(CNC(=O)CCNc1ccc(NCCC(=O)NCC(OC)OC)c2c1C(=O)c1ccccc1C2=O)OC [BST-102, 3,3′-(9,10-Dioxo-9,10-dihydroanthracene-1,4-diyl)bis(azanediyl)bis(N-(2,2-dimethoxyethyl)propanamide)] | 585 nm | 663 nm | 661 nm | 670 nm | 5.76 | < 4.00 | 
3 | COC(CNC(=O)CCNc1ccc(NCCC(=O)NCC(OC)OC)c2c1C(=O)c1c(O)ccc(O)c1C2=O)OC [BST-104, 3,3′-(5,8-dihydroxy-9,10-dioxo-9,10-dihydroanthracene-1,4diyl)bis(azanediyl)bis(N-(2,2-dimethoxyethyl)propanamide)] |  | 726 nm | 684 nm | 712 nm |  |  | 
4 | COC(CCCCNc1ccc(NCCN(C)C)c2c1C(=O)c1ccccc1C2=O)OC [BST-106, 1-(5,5-Dimethoxypentylamino)-4-(2-(dimethylamino)ethylamino) anthracene-9,10-dione] | 584 nm | 664 nm | 660 nm | 670 nm | 4.95 | 4.93 | fluorescence brightness / background in fixed cells [2]: very bright background; staining pattern in fixed cells [2]: diffuse cytoplasmic staining, with some perinuclear and nucleoli labelling; fluorescence brightness / background in live cells (A549 live cells): high background; staining pattern in live cells (A549 live cells): heterogeneous cytoplasmic staining; subcellular localisation by CLSM (U-2 OS cells): additional nuclear signal; Median (fluorescence, uptake) (A549 cells; [3]): 96.13; % ile (25) (A549 cells; [3]): 81.66; Median (fluorescence, uptake) (A549 cells; solution: media): 101.48; % ile (25) (A549 cells; solution: media): 84.64
5 | COC(CCCCNc1ccc(NCCN(C)C)c2c1C(=O)c1c(O)ccc(O)c1C2=O)OC [BST-107, 1-(5,5-Dimethoxypentylamino)-4-(2-(dimethylamino)ethylamino)-5,8-dihydroxyanthracene-9,10-dione] |  |  |  |  | 5.78 | 4.76 | 
6 | COC(CN(C)CCNc1ccc(NCCN(C)CC(OC)OC)c2c1C(=O)c1c(O)ccc(O)c1C2=O)OC [BST-201, 1,4-bis((2-((2,2-dimethoxyethyl)(methyl)amino)ethyl)amino)-5,8-dihydroxyanthracene-9,10-dione] |  | 684 nm | 690.5 nm | 684 nm |  |  | staining pattern in live cells (A549 live cells): perinuclear accumulation
7 | COC(CN(CCNc1ccc(NCCN(Cc2ccccc2)CC(OC)OC)c2c1C(=O)c1c(O)ccc(O)c1C2=O)Cc1ccccc1)OC [BST-202, 1,4-bis((2-(benzyl(2,2-dimethoxyethyl)amino)ethyl)amino)-5,8-dihydroxyanthracene-9,10-dione] |  | 680 nm |  |  |  |  | 
8 | CN(C)CCNc1ccc(O)c2c1C(=O)c1c(O)ccc(NCCN(C)C)c1C2=O [DRAQ5, reference compound] |  | >665 nm | >665 nm | 635 nm |  |  | Median (fluorescence, uptake) (A549 cells; solution: media): 217.4; % ile (25) (A549 cells; solution: media): 191.27
9 | COc1cccc2c1C(=O)c1c(O)c3c(c(O)c1C2=O)C[C@@](O)(C(=O)CO)C[C@@H]3O[C@H]1C[C@H](N)[C@H](O)[C@H](C)O1 [Doxorubicin, doxorubicin, reference compound] |  |  |  |  | 7.55 | 7.30 | 
